Activity calls are given as the source filed them. The calls are words filed in the database; no cut-off is given here.
Tests used:
C13 [1] = test: Resistance factor, ratio of IC50 for cisplatin-resistant human C13 cells to IC50 for human 2008 cells; type: functional
[2] = Cytotoxicity against human BxPC3 cells assessed as cell growth inhibition after 72 hrs by MTT assay; type: functional, cell-based; details: BXPC-3, 72 h
A-431 [3] = test: Cytotoxicity against cisplatin-resistant human A431 cells assessed as cell growth inhibition after 72 hrs by MTT assay; type: functional, cell-based; details: A-431, 72 h
2008 = test: Cytotoxicity against human 2008 cells assessed as cell growth inhibition after 72 hrs by MTT assay; type: functional, cell-based; details: Homo sapiens, 2008, 72 h
HEK293 [4] = test: Selectivity index, ratio of IC50 for HEK293 cells to IC50 for human A431 cells; type: functional
HEK293 [5] = test: Selectivity index, ratio of IC50 for HEK293 cells to IC50 for human MCF7 cells; type: functional
HEK293 [6] = test: Selectivity index, ratio of IC50 for HEK293 cells to IC50 for human A375 cells; type: functional
HEK293 [7] = test: Selectivity index, ratio of IC50 for HEK293 cells to IC50 for human HCT15 cells; type: functional
MCF7 [8] = test: Cytotoxicity against human MCF7 cells assessed as cell growth inhibition after 72 hrs by MTT assay; type: functional, cell-based; details: MCF7, 72 h
HEK293 [9] = test: Selectivity index, ratio of IC50 for HEK293 cells to IC50 for human BxPC3 cells; type: functional
C13 [10] = test: Selectivity index, ratio of IC50 for HEK293 cells to IC50 for human C13 cells; type: functional
[11] = Antioxidant activity assessed as DPPH radical scavenging activity after 1 hr; type: physicochemical
A-431 [12] = test: Resistance factor, ratio of IC50 for cisplatin-resistant human A431 cells to IC50 for human A431 cells; type: functional
NCI/ADR-RES [13] = test: Selectivity index, ratio of IC50 for HEK293 cells to IC50 for human MCF7/ADR cells; type: functional
[14] = Antioxidant activity assessed as DPPH radical scavenging activity at 1 mM after 1 hr; type: physicochemical; details: 1000 µM
A-375 = test: Cytotoxicity against human A375 cells assessed as cell growth inhibition after 72 hrs by MTT assay; type: functional, cell-based; details: A-375, 72 h
HEK293 [15] = test: Selectivity index, ratio of IC50 for HEK293 cells to IC50 for human 2008 cells; type: functional
HEK293 [16] = test: Selectivity index, ratio of IC50 for HEK293 cells to IC50 for cisplatin-resistant human A431 cells; type: functional
HCT-15 = test: Cytotoxicity against human HCT15 cells assessed as cell growth inhibition after 72 hrs by MTT assay; type: functional, cell-based; details: HCT-15, 72 h
A-431 [17] = test: Cytotoxicity against human A431 cells assessed as cell growth inhibition after 72 hrs by MTT assay; type: functional, cell-based; details: A-431, 72 h
HEK293 [18] = test: Cytotoxicity against HEK293 cells assessed as cell growth inhibition after 72 hrs by MTT assay; type: cell-based; details: Homo sapiens, HEK293, 72 h
NCI/ADR-RES [19] = test: Resistance factor, ratio of IC50 for human MCF7/ADR cells to IC50 for human MCF7 cells; type: functional
[20] = Cytotoxicity against human C13 cells assessed as cell growth inhibition after 72 hrs by MTT assay; type: functional, cell-based; details: C13, 72 h
[21] = Cytotoxicity against human MCF7/ADR cells assessed as cell growth inhibition after 72 hrs by MTT assay; type: functional, cell-based; details: NCI/ADR-RES
MCF7 [22] = test: Induction of apoptosis in human MCF7 cells assessed as decrease in mitochondrial membrane potential at IC50 after 48 hrs by flow cytometry; type: functional
MCF7 [23] = test: Effect on glutathione peroxidase activity in human MCF7 cells using tert-butyl hydroperoxide and GSH as substrate at 1.25 to 20 uM after 24 hrs by spectrophotometric analysis; type: cell-based
MCF7 [24] = test: Decrease in total sulfhydryl gropus in human MCF7 cells at IC50 after 24 hrs by DTNB reduction assay; type: functional
[25] = Antioxidant activity assessed as glutathione peroxidase-like activity measured as time required to oxidize dithiothretol by 50% after addition of H2O2 at 3.24 umol; type: physicochemical
[26] = target: T1, Thioredoxin reductase (Homo sapiens) (UniProt Q16881+Q9NNW7+Q86VQ6); test: Increase in thioredoxin reductase activity in HEK293 cells at 0.0625 to 0.625 uM after 24 hrs by DTNB reduction assay; type: cell-based; parameters: scale not given: the % may be the effect or the level left
MCF7 [27] = test: Induction of apoptosis in human MCF7 cells assessed as caspase-3 activation using DEVD-AFC as substrate at IC50 after 48 hrs by spectrofluorimeter analysis; type: functional
MCF7 [28] = test: Anticlonogenic activity against human MCF7 cells assessed as inhibition of clonogenic expansion after 6 hrs; type: functional, cell-based
MCF7 [29] = test: Decrease in total glutathione level in human MCF7 cells at IC50 after 48 hrs by spectrophotometric analysis; type: functional
MCF7 [30] = test: Induction of apoptosis in human MCF7 cells assessed as brightly stained nuclei, chromatin condensation and fragmentation at IC50 after 48 hrs by Hoechst 33258/PI fluorescent staining analysis; type: functional, cell-based
[31] = target: T1, Thioredoxin reductase (Homo sapiens); test: Inhibition of thioredoxin reductase activity in human MCF7 cells after 24 hrs by DTNB reduction assay; type: cell-based
[32] = target: T2, Glutathione reductase, mitochondrial (Homo sapiens) (UniProt P00390); test: Effect on glutathione reductase activity in human MCF7 cells using GSSG as substrate at 1.25 to 20 uM after 24 hrs by spectrophotometric analysis; type: cell-based
T2 sequence (whole entry): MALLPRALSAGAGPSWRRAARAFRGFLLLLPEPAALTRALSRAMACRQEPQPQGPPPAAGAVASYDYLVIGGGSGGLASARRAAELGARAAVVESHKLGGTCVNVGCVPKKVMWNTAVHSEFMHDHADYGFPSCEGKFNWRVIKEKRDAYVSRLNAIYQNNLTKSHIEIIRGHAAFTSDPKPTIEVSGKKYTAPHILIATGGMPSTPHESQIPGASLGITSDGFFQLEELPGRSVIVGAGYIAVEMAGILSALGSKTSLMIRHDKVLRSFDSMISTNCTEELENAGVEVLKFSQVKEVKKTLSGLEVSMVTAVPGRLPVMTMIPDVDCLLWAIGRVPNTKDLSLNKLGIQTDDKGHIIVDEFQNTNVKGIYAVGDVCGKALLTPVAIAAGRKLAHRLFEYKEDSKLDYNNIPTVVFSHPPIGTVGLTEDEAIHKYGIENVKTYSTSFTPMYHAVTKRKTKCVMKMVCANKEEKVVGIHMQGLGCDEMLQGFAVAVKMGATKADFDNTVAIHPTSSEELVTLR

MCF7 [33] = test: Drug uptake in human MCF7 cells assessed as intracellular Se accumulation at 12.5 to 25 uM after 12 to 24 hrs by GF-AAS analysis; type: ADME, cell-based; details: mcf7, 25 µM

| Compound | IC50 [2] [µM] | IC50 (A-431 [3]) [µM] | IC50 2008 [µM] | Ratio IC50 (HEK293 [4]) | Ratio IC50 (HEK293 [5]) | Ratio IC50 (HEK293 [6]) | Ratio IC50 (HEK293 [7]) | IC50 (MCF7 [8]) [µM] | Ratio IC50 (HEK293 [9]) | Ratio IC50 (C13 [10]) | Ratio IC50 (A-431 [12]) | Ratio IC50 (NCI/ADR-RES [13]) | IC50 (A-375) [µM] | Ratio IC50 (HEK293 [15]) | Ratio IC50 (HEK293 [16]) | IC50 (HCT-15) [µM] | IC50 (A-431 [17]) [µM] | IC50 (HEK293 [18]) [µM] | IC50 [20] [µM] | IC50 [21] [µM] | further results |
| --- | --- | --- | --- | --- | --- | --- | --- | --- | --- | --- | --- | --- | --- | --- | --- | --- | --- | --- | --- | --- | --- |
| O=c1c(O)c(-c2ccc(O)c(O)c2)oc2cc(O)cc(O)c12 [QUERCETIN] | 24.1 | 34.4 | 21.2 | 2.5 | 2.5 | 2.5 | 2.5 | 20.9 | 2.5 | 2.5 | 1.5 | 2.5 | 25.1 | 2.5 | 2.5 | 16.4 | 23 | 54.6 | 37.6 | 22.2 | Ratio IC50 (C13 [1]): 1.8; IC50 [11]: 28 µM; Activity [14]: 95.6%; Ratio IC50 (NCI/ADR-RES [19]): 1.1 |
| Oc1cc(O)c2c(=S)cc(-c3ccccc3)oc2c1 | 64.4 | 98.4 | 41.1 | 1.2 | 1.2 | 1.2 | 1.2 | 70.4 | 1.2 | 1.2 | 1.6 | 1.2 | 36.5 | 1.2 | 1.2 | 56.6 | 66.3 | 68.3 | 58.5 | 72.3 | Ratio IC50 (C13 [1]): 1.4; IC50 [11]: 4600 µM; Ratio IC50 (NCI/ADR-RES [19]): 1 |
| O=C1O[C@H]([C@@H](O)CO)C(O)=C1O [ASCORBIC ACID] |  |  |  |  |  |  |  |  |  |  |  |  |  |  |  |  |  |  |  |  | IC50 [11]: 6 µM |
| COc1cc(O)c2c(=O)c(OC)c(-c3ccc(OC)c(OC)c3)oc2c1 [RETUSIN] | > 100 | 82.2 | > 100 | 1.6 | 1.6 | 1.6 | 1.6 | > 100 | 1.6 | 1.6 | 1.4 | 1.6 | 69.7 | 1.6 | 1.6 | 68.1 | 57.5 | 142 | > 100 | > 100 | Activity [14]: 2.5% |
| COc1cc(O)c2c(=S)c(OC)c(-c3ccc(OC)c(OC)c3)oc2c1 |  |  |  |  |  |  |  |  |  |  |  |  |  |  |  |  |  |  |  |  | Activity [14]: 18.3% |
| COc1cc(O)c2c(=[Se])c(OC)c(-c3ccc(OC)c(OC)c3)oc2c1 | 2.42 | 3.78 | 2.09 | 5.1 | 5.1 | 5.1 | 5.1 | 3.08 | 5.1 | 5.1 | 1.2 | 5.1 | 2.21 | 5.1 | 5.1 | 2.23 | 3.11 | 17.3 | 2.29 | 3.35 | fold change (FC) (MCF7 [22]): 4; Activity (MCF7 [23]): inactive; inhibition (INH) (MCF7 [24]): 60%; Time [25]: 4.34 min; Activity [26]: 35%; fold change (FC) (MCF7 [27]): 4; inhibition (MCF7 [28]): Active; inhibition (MCF7 [29]): Active; Activity (MCF7 [30]): Active; IC50 [11]: 74 µM; Activity [14]: 90.4%; inhibition [31]: Active; Activity [32]: inactive; Drug uptake (MCF7 [33]): Active; Ratio IC50 (NCI/ADR-RES [19]): 1.1 |
| O=c1cc(-c2ccccc2)oc2cc(O)cc(O)c12 [CHRYSIN] | 54.3 | 60.1 | 28.6 | 1.9 | 1.9 | 1.9 | 1.9 | 50.3 | 1.9 | 1.9 | 2 | 1.9 | 33.2 | 1.9 | 1.9 | 54.4 | 29.4 | 77.5 | 49.7 | 51 | Ratio IC50 (C13 [1]): 1.7; Ratio IC50 (NCI/ADR-RES [19]): 1 |

— ChEMBL document CHEMBL3576842, “Selenium-containing chrysin and quercetin derivatives: attractive scaffolds for cancer therapy” (J Med Chem, 2015)
